Measurements published in US20210353579A1, “HIGH PENETRATION COMPOSITIONS AND USES THEREOF” (Techfields Pharma Co., Ltd., priority 2006, published 2021).
In brackets after ≈: the same amount, converted by molar mass. Like-named read-outs stand apart in the source and are kept apart here.

Legend:
[1] = Plasma levels after transdermal administration to hairless mice; type: in vivo; settings: for t, time to peak plasma level after parent compound: parent compound administered (time when taken orally)
Description: Tested compounds (20% solution or suspension in 1 mL isopropanol) are administered transdermally to the skin of intact hairless mice. The plasma levels of the parent compounds are determined by HPLC.

[2] = test system: mice; experiment: Analgesic activity, D'Amour-Smith method (tail heat, pain threshold); type: in vivo; settings: 200 mg/kg transdermally vs 200 mg/kg diflunisal orally
Description: After the tested compounds are administered (the dosages for each test compounds are specified in FIG. 3, prodrug compounds are administered orally and transdermally respectively in different groups, while parent compounds are administered orally) to a group of mice (six mice every group), the tails of mice are exposed to heat and the prolongation time of pain threshold is determined. […] The prodrug compounds show similar analgesic activities when the same dosages are administered orally or transdermally. (FIG. 3)

[3] = test system: mice; experiment: Analgesic activity, acetic acid writhing; type: in vivo
Description: The prodrug compounds are administered either transdermally or orally. The parent compounds are administered orally. The number of writhing that occurred when mice are administered the acetic acid solution are counted, and the rate of inhibition based on the control group which was not pretreated with any test compounds is calculated. […] The A group is the control group.

[4] = test system: rats; experiment: Antipyretic activity, E. coli suspension as pyrogen; type: in vivo; settings: in °C (unit assumed)
Description: Rats are administered with sterilized E. coli suspension as a pyrogen. Each group of rats are administered with a prodrug compounds or parent compounds at a dosage specified below. The prodrug compounds are administered either orally or transdermally. The parent compounds are administered orally.

[5] = test system: human skin tissue; settings: pH 7.4
[6] = test system: rat
Description: (§1) The acute toxicity of the prodrug compounds and parent compounds are measured by LD50 of rat.

[7] = in vivo; settings: rat
Description: as §1

[8] = test system: human skin tissue; experiment: In vitro penetration rate through human skin, modified Franz cells; settings: Franz cell; for In vitro penetration rate (apparent flux), prodrug compounds: 20% solution in 0.2 M phosphate buffer pH 7.4, human skin
[9] = Plasma levels after transdermal administration to hairless mice; settings: mouse, in vivo, po
[10] = test system: C57/BL6 mice, MPTP; experiment: MPTP Parkinson's disease mice: GABA and Glu in substantia nigra and striatum; settings: mouse, in vivo
Description: Group A mice were i.p. injected 0.4% sodium carboxymethylcellulos (15 ml/kg per day) for 7 days. Group B and C mice were i.p. injected N-methyl-4-phenyl-1,2,3,6-tetrahydropyridine (MPTP, 30 mg/kg per day) for 7 days. The mice were divided into 2 groups. […] All mice were killed after the last treatment and the brain tissues were quickly frozen at −80° C. […] The contents of GABA and Glu in the striatum and SN were shown by high performance amino acid auto-analyser.

[11] = test system: Human breast cancer cells (BCAP-37); experiment: Human breast cancer xenograft in nude mice, topical
Description: Human breast cancer cells (BCAP-37, 2-3 mm^3 of tumor tissue was used in each mouse) are subcutaneously xenografted into the front leg of nude mice (BALB, 12 groups, 7 mice each group). […] Then 30 μl of 5% (equal to 1.5 mg of the HPPs) diethylaminoethyl acetylsalicylate.acetylsalicylic acid salt (P-1, in acetone); 1-piperidinepropyl 2[(2,6-dichlorophenyl)amino]benzene acetate.AcOH (P-2, in water), 1-pyrrolidinepropyl 2-(3-benzoylphenyl) propionate.AcOH (P-3, in water), 4-piperidinemethyl 2-(3-phenoxyphenyl)propionate.AcOH (P-4, in water), 3-piperidinemethyl 2-(ρ-isobutylphenyl) propionate.AcOH (P-5, in water), diethylaminoethyl 1-(p-chlorobenzoyl)-5-methoxy-2-methylindole 3-acetate.AcOH (P-11, in water), 2-(4-morpholinyl)ethyl (Z)-5-fluoro-2-methyl-1-[(4-methylsulfinyl) phenylmethylene]-1H-indene-3-acetate.AcOH (P-12, in water), diethylaminoethyl

[12] = Solubility in water / aqueous solubility of HPPs and parent drugs; settings: for Solubility of HPP: medium not given
[13] = Distribution of prodrug and metabolites in tissues after application to the back of killed rats; type: in vivo; settings: Wistar, rat, 50 mg/kg, 3 h after 50 mg/kg prodrug citric acid salt on the back of killed rat, 37° C.
Description: The mixture was centrifuged for 5 minutes at 16,000 rpm. The supernatant (2 ml) was collected and evaporated to dryness.

[14] = test system: Chinese white rabbits; experiment: Malassezia-induced lesions similar to psoriasis; type: in vivo, rabbit; settings: 5% aqueous solution twice per day, 10 days after application
Source text: Heavy suspensions of Malassezia [Rosenberg, E. W., et al., Mycopathologia, 72, 147-154 (1980)] were applied to the shaved skin on the backs of the Chinese white rabbits (n=4×6) twice (at 7 am and 7 pm) per day for 2 weeks, lesions similar to psoriasis resulted.

[15] = test system: Human colon cancer cells (LS174J); experiment: Human colon cancer xenograft in nude mice, topical; settings: day 30, about 30 μl of 5% solution (1.5 mg) topically applied
Source text: Human colon cancer cells (LS174J, 2-3 mm^3 of tumor tissue was used in each mouse) are subcutaneously xenografted into the front leg of nude mice (BALB).

[16] = 50 mg/kg transdermally, 30 min before acetic acid
[17] = 100 mg/kg transdermally, 30 min before acetic acid
[18] = parent compound administered, hairless mice
[19] = transdermal, 20% in 1 mL isopropanol, hairless mice
[20] = 100 mg/kg transdermally, 60 minutes before acetic acid
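Wherever LD50 is given: acute toxicity in rats expressed as LD50, determined for both prodrugs and their parent compounds.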
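Wherever LD50 of HPP is given: acute toxicity in rats expressed as LD50, determined for both prodrugs and their parent compounds.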
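Wherever LD50 of parent drug is given: acute toxicity in rats expressed as LD50, determined for both prodrugs and their parent compounds.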

Compound	% (rate of writhing inhibition) [3, 17] [%]	No. of Writhing [3, 17]	body temperature, t = 0 min ([4]; 100 mg/kg transdermally)	body temperature, t = 90 min ([4]; 100 mg/kg transdermally)	body temperature, t = 180 min ([4]; 100 mg/kg transdermally)	body temperature, t = 270 min ([4]; 100 mg/kg transdermally)	LD50 of HPP ([6]; rats) [mg/kg]	Peak plasma concentration after parent compound ([1]; mouse, in vivo) [mg/L]	In vitro penetration rate (apparent flux), parent compounds [5] [μg/cm^2/h]	t, time to peak plasma level after parent compound [9] [h]	Peak plasma concentration of parent compound after prodrug compound [1, 19] [mg/L]	t, time to peak plasma level of parent compound after prodrug compound [1, 19] [min]	In vitro penetration rate (apparent flux), prodrug compounds [8] [μg/cm^2/h]	further results
CC(=O)O.CCN(CC)CCOC(=O)c1cc(-c2ccc(F)cc2F)ccc1O [diethylaminoethyl 5-(2,4-difluorophenyl) salicylate.AcOH]	71	10.2	37.22 ± 0.07	36.42 ± 0.06	36.40 ± 0.05	36.47 ± 0.08	1000							Peak plasma concentration of parent compound after prodrug compound ([1]; mouse, in vivo): 50 mg/L; t, time to peak plasma level of parent compound after prodrug compound ([1]; mouse, in vivo): 30 min; analgesic activity, prolongation time of pain threshold of mice tails [2]: stronger analgesic activity; % (rate of writhing inhibition) [3, 16]: 62%; No. of Writhing [3, 16]: 13.2; body temperature, t = 0 min ([4]; 150 mg/kg transdermally): 37.26 ± 0.08; body temperature, t = 90 min ([4]; 150 mg/kg transdermally): 36.20 ± 0.05; body temperature, t = 180 min ([4]; 150 mg/kg transdermally): 36.30 ± 0.07; body temperature, t = 270 min ([4]; 150 mg/kg transdermally): 36.31 ± 0.08; In vitro penetration rate (apparent flux), prodrug compounds [5]: 100 μg/cm^2/h
CC1=C(CC(=O)O)c2cc(F)ccc2/C1=C\c1ccc([S+](C)[O-])cc1 (stereo not shown) [Sulindac, sulindac, reference compound]														t, time to peak plasma level after parent compound [1]: 1 to 2 h; Peak plasma concentration after parent compound [1, 18]: 0.1 mg/L; LD50 [7]: 260 mg/kg; In vitro penetration rate (apparent flux), parent compounds ([8]; 20% suspension in 0.2 M phosphate buffer pH 7.4, human skin, detection limit 1): 10 μg/cm^2/h
Nc1c(CC(=O)O)cccc1C(=O)c1ccc(Br)cc1 [Bromofenac, bromofenac]								0.1	10	1 to 2				
NC(=O)C[S+]([O-])C(c1ccccc1)c1ccccc1 (stereo not shown) [modafinil, reference compound]														increase of nigrostriatal Glu release induced by MPTP [10]: did not change
salicylsalicylic acid [Salsalate, reference compound]								0.1	<1	1 to 2				LD50 of parent drug ([6]; rats): 1500 mg/kg
CN1C(C(=O)Nc2nccs2)=C(O)c2ccccc2S1(=O)=O [Sudoxiam, sudoxiam]								0.1	<1	2 to 4				
O=C(O)CC(O)c1ccc(-c2ccc(Cl)cc2)o1 (stereo not shown) [Orpanoxin, orpanoxin]								10	30	2 to 4				
CC(=O)O.CCN(CC)CCOC(=O)Cc1c(C)n(C(=O)c2ccc(Cl)cc2)c2ccc(OC)cc12 [diethylaminoethyl 1-(p-chlorobenzoyl)-5-methoxy-2-methylindole 3-acetate.AcOH]	55	15.6	37.35 ± 0.06	36.91 ± 0.05	36.85 ± 0.08	36.79 ± 0.07	100				20	50	1100	Tumor size ([11]; day 42, 30 μl of 5% (1.5 mg) topically every 8 hours from day 14, control 800 ± 100): 210 ± 100 mm^3; Mouse weight ([11]; mouse, in vivo): 21 ± 2 g; Solubility of HPP [12]: >250 mg/mL
O=C(O)c1ccccc1O [salicylic acid]														t, time to peak plasma level after parent compound [1]: 1 to 2 h; Peak plasma concentration after parent compound [1, 18]: 0.1 mg/L; concentration at 3 h ([13]; read-out: amount in Bone): 35000 ± 6000 ng/g; concentration at 3 h ([13]; read-out: amount in Brain): 30000 ± 6000 ng/g; concentration at 3 h ([13]; read-out: amount in Liver): 45000 ± 8000 ng/g; concentration at 3 h ([13]; read-out: amount in Plasma): 65 ± 10 µg/mL; In vitro penetration rate (apparent flux), parent compounds ([5]; human, 20 %): <1 μg/cm^2/h; solubility ([12]; water): 0.1 mg/mL (≈ 724 µM)
CC(=O)O.CCN(CC)CCOC(=O)Cc1cc(C)c(C(=O)c2ccc(Cl)cc2)n1C [diethylaminoethyl 5-(4-Chlorobenzoyl)-1,4-dimethyl-1H-pyrrole-2-acetate.AcOH]	55	15.6	37.21 ± 0.07	36.82 ± 0.06	36.70 ± 0.05	36.70 ± 0.08					20	50	1200	lesions similar to psoriasis [14]: the lesions were resolved; LD50 of HPP ([6]; rat, in vivo): 200 mg/kg
CC(=O)O.CCN(CC)CCOC(=O)C(C)c1ccc2c(c1)[nH]c1ccc(Cl)cc12 (stereo not drawn) [diethylaminoethyl 6-chloro-α-methyl-9H-carbazole-2-acetate.AcOH]	59	14.2	37.28 ± 0.06	36.68 ± 0.05	36.62 ± 0.08	36.58 ± 0.07	700				2000	50	4000	Solubility of HPP [12]: >350 mg/mL; Solubility in water ([12]; product as prepared in Example 1): 400 mg/mL
CC(=O)O.CCN(CC)CCOC(=O)c1ccccc1Nc1cccc(C(F)(F)F)c1 [diethylaminoethyl 2-[[(3-(trifluoromethyl)phenyl)amino]benzoate.AcOH]			37.27 ± 0.06	36.76 ± 0.05	36.65 ± 0.08	36.49 ± 0.07	800				20	50	2200	% (rate of writhing inhibition) [3, 20]: 54%; No. of Writhing [3, 20]: 16.1; Solubility of HPP [12]: >400 mg/mL
CC(=O)O.CCN(CC)CCOC(=O)Cc1ccc(C(=O)c2ccc(C)cc2)n1C [diethylaminoethyl 1-methyl-5-(4-methylbenzoyl)-1H-pyrrole-2-acetate.AcOH]	51	17.1	37.27 ± 0.06	36.71 ± 0.05	36.65 ± 0.08	36.59 ± 0.07					20	50	1000	Mouse weight [15]: 21 ± 2 g; Tumor size [15]: 610 ± 200 mm^3; lesions similar to psoriasis [14]: the lesions were resolved; LD50 of HPP ([6]; rat, in vivo): 600 mg/kg
